# In US20230286919A1, “ISOQUINOLINE DERIVATIVES FOR USE IN THERAPY” (Vestlandets Innovasjonsselskap AS, priority 2020, published 2023):
# Key:
# [1] = system: DNA-binding domain of STAT1, STAT3, STAT5A, STAT5B; assay: STAT family DNA binding assay on nuclear extracts of DU145 cells; format: cell-based, human; settings: 5-20 μM, 24 hrs
# Procedure: The nuclear extraction was performed according to the STAT Family Transcription Factor Assay Kit (Abcam, ab207228). First, cells were washed with ice-cold PBS and Phosphatase Inhibitors Cocktail (125 mM NaF, […] p-glycerophosphatase, 250 mM PNPP, 25 mM NaVO3) in ice-cold PBVS was added and cells scraped off the dish. Then cells were collected at 300×g for 5 minutes at 4° C. The pellet was resuspended in hypotonic buffer (20 mM Hepes pH7.5, 5 mM NaF, 10 μM Na2MoO4, 0.1 mM EDTA) and 10% NP-40 was added to a final concentration 0.5% and mixed well. The mixture was centrifugated at 4° C. for 30 seconds in a microcentrifuge and supernatant was discarded. […] Stop solution was added when the wells turned medium to dark blue followed by measurement of absorbance at OD 450 nm. […]
# DU145 cells = assay: Flow cytometric analysis of cell apoptosis; format: cell-based, human; settings: 72 hrs
# Procedure: The […] effect of compounds 323-1 and 323-2 was evaluated in DU145 cells.
# Data are shown as representative results of three experiments.
# [2] = system: phosphorylated STAT3 (Tyr705); assay: Western blot, IL-6-induced phosphorylation of STAT3 (Tyr705) in LNCaP cells; format: cell-based, human; settings: 20 μM, 24 hrs, 10 ng/ml IL-6 last 15 min
# Procedure: To obtain the results shown in FIG. 9, LNCaP cells were treated with DMSO, 20 μM of compound 323-1 or 323-2 or 5 μM cryptotanshinone for 24 hrs before treatment with or without 10 ng/ml IL-6 for the last 15 min.
# STAT3 activity = assay: STAT3 luciferase reporter assay in HEK293T cells with IL-6; format: cell-based, human; settings: 20 ng/ml IL-6, 24 hrs, compared with cryptotanshinone
# Procedure: Luciferase activity was measured by the Dual Luciferase Assay Kit (Promega) using a Luminescence Microplate Reader (Biotek). Values were normalized to Renilla luciferase activity of DMSO vehicle.
# All data are represented as the average±s.e.m (n=3). Significance was verified by using unpaired two-tailed Student's t-test. *p s 0.05.
# LNCaP tumours = assay: Antitumor activity in vivo, LNCaP xenograft; settings: IP daily for three weeks
# Procedure: Four-week-old male BALB/c-nu nude mice (15-20 g) were obtained from the Shanghai BiKai Laboratory Animal Co., Ltd. (Shanghai, China). The animals were maintained under specific pathogen-free conditions with food and water supplied ad libitum in the Laboratory Animal Center of the Second Military Medical University. All animal experiments were carried out in accordance with the Guide for the Care and Use of Laboratory Animals of the National Institutes of Health and were approved by the Committee on the Ethics of Animal Experiments of the Second Military Medical University, China. LNCaP cells were harvested and re-suspended in PBS. A total of 5×10^6 cells were subcutaneously injected into the right flank. Tumour volume was calculated using the following formula: V=(L×[…])/2, where L is the length and W is the width of the tumour nodules measured with vernier callipers. Once the volume of the tumours reached 75-100 mm^3, the mice were randomly divided into three groups (n=6). […] Body weights and tumour volumes were measured before each drug injection. […]
# The mice were treated daily for three weeks with IP injections of either vehicle (olive oil) or compound 323-2 (20 mg/kg or 40 mg/kg in the vehicle). Body weights and tumour volumes were measured before each drug injection. […]
structure (smiles),measurement,setting,value
"C[C@@H]1CCC(c2cc3c4c(cncc4c2)[C@@H](C)C3)=C1C=O [323-2, (15S,2R)-Delavatine A]","Effect on DNA binding of STAT1, STAT3, STAT5A, STAT5B",[1],neither 323-1 nor 323-2 affected
same,Induction of apoptosis,DU145 cells,appeared to induce apoptosis
same,Induction of apoptosis compared with cryptotanshinone,DU145 cells,much weaker than by cryptotanshinone
same,IL-6-induced phosphorylation of STAT3 on Tyr705,[2],inhibited
same,Inhibitory effect on STAT3 activation (luciferase reporter),STAT3 activity,stronger inhibitory effect on STAT3 activation than cryptotanshinone
same,CRPC tumour growth,"LNCaP tumours; 20 mg/kg or 40 mg/kg, especially high dose",significantly inhibited CRPC tumour growth
same,Body weight change,LNCaP tumours; 20 or 40 mg/kg,No significant body weight change
